These are literature values, as cited in US11530415B2, “Genetically engineered Streptomyces capable of thaxtomin production in the absence of thaxtomin-inducing conditions and methods of producing thaxtomin” (University of Florida Research Foundation, Inc., priority 2017, dated 2022).

The structures appear in SMILES notation.

This data set deals with cellulose biosynthesis. Conditions: background statement, no method given.

In the case of `CN1C(=O)[C@](O)(Cc2cccc(O)c2)N(C)C(=O)[C@@H]1Cc1c[nH]c2cccc([N+](=O)[O-])c12` [Thaxtomin A, thaxtomin A], the “potency in inhibiting cellulose biosynthesis” value is given as “excellent potency (in an nM range)”.
